Results as given in ChEMBL document CHEMBL1201862, “PubChem BioAssay data set” (2004).
Activity calls are given as the source filed them.

Experiments:
[1] = NIH-3T3 fibroblast cytotoxicity, dose response, cytotoxicity control, cell-based, fluorescence, Alamar Blue, secondary assay (AID 2327); type: functional;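 further: NIH-3T3 mouse fibroblasts cultured with fluconazole at 8 µg/mL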
[2] = DRD fibroblast viability loss – cell-based, non-viral oncogenic, luminescence, dose response (AID 1934); type: functional; settings: Homo sapiens
[3] = fluconazole-exposed Candida albicans growth modulators – fluorescence, retest, confirmation (AID 2467); type: functional, cell-based
[4] = system: A-375; assay: proliferation inhibition in MITF-low A375 cells – cell-based, cherry-pick samples, set 2, counter-screen for MITF modulator project, dose response (AID 540335); type: functional; settings: Homo sapiens
[5] = system: BJ; assay: BJ-TERT fibroblast viability loss – cell-based, RAS-independent, luminescence, dose response (AID 1933); type: functional; settings: Homo sapiens
[6] = system: BJ; assay: BJ-TERT-LT-ST fibroblast viability loss – cell-based, RAS-independent, luminescence, dose response (AID 1935); type: functional; settings: Homo sapiens;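 further: BJ fibroblasts immortalized with TERT plus LT and ST oncogenes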
[7] = system: INS1; assay: INS-1E survival protection against cytokine death – cell-based, luminescence, retest, dose response (AID 449756); type: functional; settings: Rattus norvegicus;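 further: cell death triggered by IL-1 beta plus TNF-alpha plus IFN-gamma mixture; protective hits raise ATP signal compared with cytokine alone wells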
[8] = HEK-293T cell viability reduction – luminescence, B-cell screen hits, cytotoxicity control for BCR NF-kB inhibitor project, dose response (AID 489021); type: functional, cell-based;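 further: HEK-293T cells carrying an NF-kB luciferase reporter; cells exposed to compound for about 14 hours before viability readout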
[9] = system: BJ; assay: cells; type: functional, cell-based; settings: Homo sapiens
[10] = target: T1, Microphthalmia-associated transcription factor (Homo sapiens, UniProt O75030); assay: reducers of TRPM1 reporter luminescence, concentration series – cell-based, SK-MEL-5, cherry-picked, set 3, MITF inhibitor project, dose response (AID 493073); type: functional;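 further: SK-MEL-5 melanoma cells with luciferase driven by the MITF target TRPM1 promoter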
T1 sequence (O75030 whole entry): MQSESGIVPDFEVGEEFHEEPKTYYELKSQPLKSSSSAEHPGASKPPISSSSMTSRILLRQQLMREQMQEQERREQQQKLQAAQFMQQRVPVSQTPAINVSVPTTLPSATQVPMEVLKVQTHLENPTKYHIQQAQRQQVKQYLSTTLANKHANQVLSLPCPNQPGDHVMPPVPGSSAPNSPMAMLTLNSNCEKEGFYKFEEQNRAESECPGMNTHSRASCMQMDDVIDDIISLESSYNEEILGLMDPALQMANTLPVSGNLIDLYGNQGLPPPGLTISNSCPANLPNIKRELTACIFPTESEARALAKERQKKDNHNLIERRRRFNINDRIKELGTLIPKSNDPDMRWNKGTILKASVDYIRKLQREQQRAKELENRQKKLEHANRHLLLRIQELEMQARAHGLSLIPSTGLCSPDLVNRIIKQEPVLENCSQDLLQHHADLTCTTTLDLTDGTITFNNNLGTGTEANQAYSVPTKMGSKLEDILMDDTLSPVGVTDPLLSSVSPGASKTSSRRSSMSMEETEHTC

[11] = target: T2, Short transient receptor potential channel 4 (Mus musculus, UniProt Q9QUQ5); assay: SAR Analysis for the identification of selective inhibits of the transient receptor potential cation channel C4 (TRPC4): Automated Electrophysiology_2. [Related pubchem assays (depositor defined):AID2256]; type: functional
T2 sequence (Q9QUQ5 whole entry): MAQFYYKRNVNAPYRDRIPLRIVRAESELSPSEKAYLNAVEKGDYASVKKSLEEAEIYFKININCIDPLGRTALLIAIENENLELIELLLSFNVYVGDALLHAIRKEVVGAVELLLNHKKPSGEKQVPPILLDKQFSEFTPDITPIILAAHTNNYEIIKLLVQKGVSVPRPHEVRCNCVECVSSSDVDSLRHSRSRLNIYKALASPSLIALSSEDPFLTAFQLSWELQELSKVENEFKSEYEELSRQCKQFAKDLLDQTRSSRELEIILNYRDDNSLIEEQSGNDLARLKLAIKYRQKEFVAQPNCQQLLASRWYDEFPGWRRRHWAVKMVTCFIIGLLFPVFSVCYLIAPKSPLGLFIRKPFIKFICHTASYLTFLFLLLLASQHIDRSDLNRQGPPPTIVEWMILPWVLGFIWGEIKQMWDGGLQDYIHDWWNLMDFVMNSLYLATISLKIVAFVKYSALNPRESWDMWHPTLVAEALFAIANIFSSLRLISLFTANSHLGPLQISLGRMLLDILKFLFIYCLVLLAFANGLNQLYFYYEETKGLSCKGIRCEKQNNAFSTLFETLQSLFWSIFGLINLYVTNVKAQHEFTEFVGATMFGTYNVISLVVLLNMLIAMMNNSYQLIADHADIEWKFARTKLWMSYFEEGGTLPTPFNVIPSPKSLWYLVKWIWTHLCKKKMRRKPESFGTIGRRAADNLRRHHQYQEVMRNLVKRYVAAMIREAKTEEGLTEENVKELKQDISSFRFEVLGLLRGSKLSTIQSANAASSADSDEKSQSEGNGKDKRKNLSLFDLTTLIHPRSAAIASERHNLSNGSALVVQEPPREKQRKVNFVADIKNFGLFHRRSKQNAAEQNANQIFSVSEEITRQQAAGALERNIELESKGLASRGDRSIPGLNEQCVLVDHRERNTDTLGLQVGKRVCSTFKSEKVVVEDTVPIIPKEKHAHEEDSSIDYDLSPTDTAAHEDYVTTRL

[12] = target: T2, Short transient receptor potential channel 4; assay: potency of mouse TRPC4 calcium flux blockers – cell-based, HEK293 TRPC4/mu-opioid, DAMGO stimulus, Fluo-4, dose response (AID 492994); type: functional
[13] = system: A-375; assay: MITF: Counter assay: A375 proliferation Measured in Cell-Based System Using Plate Reader - 2084-03_Inhibitor_Dose_DryPowder_Activity. [Related pubchem assays (depositor defined):AID488944]; type: functional; settings: Homo sapiens
[14] = target: DNA damage-inducible transcript 3 protein (Mus musculus, UniProt P35639); type: functional, Cricetulus griseus
[15] = target: T3, X-box-binding protein 1 (Homo sapiens, UniProt P17861); type: functional, Cricetulus griseus;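 further: confirmatory dose-response counter-screen serving a CHOP assay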
T3 sequence (P17861 whole entry): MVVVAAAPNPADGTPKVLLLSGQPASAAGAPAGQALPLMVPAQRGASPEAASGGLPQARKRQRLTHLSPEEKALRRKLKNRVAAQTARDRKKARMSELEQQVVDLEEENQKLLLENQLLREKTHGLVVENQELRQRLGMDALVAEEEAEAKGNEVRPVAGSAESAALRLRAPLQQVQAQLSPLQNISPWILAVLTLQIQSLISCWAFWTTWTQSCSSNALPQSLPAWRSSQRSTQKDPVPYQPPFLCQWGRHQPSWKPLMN

[16] = target: T4, Heat shock factor protein 1 (Mus musculus, UniProt P38532); assay: decrease of HSF1-responsive luciferase luminescence – cell-based, NIH3T3, dose retest, confirmation (AID 2382); type: functional;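 further: NIH3T3 fibroblasts with HSF1-driven luciferase reporter stressed by proteasome inhibitor MG132; luminescence from HSF1-driven luciferase expression after 8 hours of MG132 stress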
T4 sequence (P38532 whole entry): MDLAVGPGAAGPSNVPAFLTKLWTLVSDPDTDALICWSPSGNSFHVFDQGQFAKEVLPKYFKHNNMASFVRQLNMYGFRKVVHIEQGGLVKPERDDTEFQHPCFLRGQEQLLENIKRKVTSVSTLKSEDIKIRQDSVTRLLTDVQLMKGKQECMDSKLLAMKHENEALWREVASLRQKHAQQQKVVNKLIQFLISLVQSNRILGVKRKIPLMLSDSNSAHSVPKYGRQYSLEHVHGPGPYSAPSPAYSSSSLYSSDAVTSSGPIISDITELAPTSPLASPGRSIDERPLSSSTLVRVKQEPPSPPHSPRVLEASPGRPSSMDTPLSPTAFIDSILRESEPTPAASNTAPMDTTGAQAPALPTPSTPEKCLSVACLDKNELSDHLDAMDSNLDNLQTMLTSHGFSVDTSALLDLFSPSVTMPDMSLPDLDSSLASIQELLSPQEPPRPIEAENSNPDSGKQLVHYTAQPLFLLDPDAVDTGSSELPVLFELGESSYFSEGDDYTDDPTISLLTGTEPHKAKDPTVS

[17] = target: Dual specificity protein phosphatase 6 (Rattus norvegicus, UniProt Q64346); type: functional;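 further: confirmatory in vitro dose-response testing of MKP-3 inhibition; recombinant His-tagged MKP-3 made in E. coli BL21 with OMFP substrate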
[18] = target: Tyrosine-protein phosphatase non-receptor type 12 (Homo sapiens, UniProt Q05209); assay: SAR Selectivity Analysis of small molecule inhibitors of PEST using pCAP in a fluorescence assay. [Related pubchem assays (depositor defined):AID1779, AID1784, AID2135]; type: functional
[19] = target: T5, Tyrosine-protein phosphatase non-receptor type 7 (Homo sapiens, UniProt P35236); assay: redox-active compounds inhibiting HePTP phosphatase – biochemical, fluorescence, mechanism study (AID 2068); type: functional
T5 sequence (P35236 whole entry): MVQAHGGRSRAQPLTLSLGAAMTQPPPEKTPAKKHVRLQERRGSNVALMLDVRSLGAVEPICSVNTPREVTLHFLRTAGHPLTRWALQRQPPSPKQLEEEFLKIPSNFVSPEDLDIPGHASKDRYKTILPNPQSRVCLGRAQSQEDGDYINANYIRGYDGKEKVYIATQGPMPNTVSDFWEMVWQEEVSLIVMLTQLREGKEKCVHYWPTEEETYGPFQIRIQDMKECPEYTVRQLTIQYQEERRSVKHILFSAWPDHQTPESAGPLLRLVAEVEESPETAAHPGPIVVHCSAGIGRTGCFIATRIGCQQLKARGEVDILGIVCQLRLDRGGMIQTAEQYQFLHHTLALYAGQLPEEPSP

[20] = target: T6, Tyrosine-protein phosphatase non-receptor type 22 (Homo sapiens, UniProt Q9Y2R2); assay: inhibition of lymphoid tyrosine phosphatase LYP – biochemical, pCAP fluorogenic substrate, fluorescence, set 3, SAR follow-up (AID 449727); type: functional
[21] = target: T6, Tyrosine-protein phosphatase non-receptor type 22; assay: SAR LYP1 Fluorescent Assay using OMFP substrate for In Vitro dose response studies - Set 3. [Related pubchem assays (depositor defined):AID1779, AID1784, AID2140, AID2686]; type: functional
[22] = target: T5, Tyrosine-protein phosphatase non-receptor type 7; assay: inhibition of hematopoietic tyrosine phosphatase HePTP – biochemical, set 2, SAR follow-up (AID 449736); type: functional

T6 sequence (Q9Y2R2 whole entry): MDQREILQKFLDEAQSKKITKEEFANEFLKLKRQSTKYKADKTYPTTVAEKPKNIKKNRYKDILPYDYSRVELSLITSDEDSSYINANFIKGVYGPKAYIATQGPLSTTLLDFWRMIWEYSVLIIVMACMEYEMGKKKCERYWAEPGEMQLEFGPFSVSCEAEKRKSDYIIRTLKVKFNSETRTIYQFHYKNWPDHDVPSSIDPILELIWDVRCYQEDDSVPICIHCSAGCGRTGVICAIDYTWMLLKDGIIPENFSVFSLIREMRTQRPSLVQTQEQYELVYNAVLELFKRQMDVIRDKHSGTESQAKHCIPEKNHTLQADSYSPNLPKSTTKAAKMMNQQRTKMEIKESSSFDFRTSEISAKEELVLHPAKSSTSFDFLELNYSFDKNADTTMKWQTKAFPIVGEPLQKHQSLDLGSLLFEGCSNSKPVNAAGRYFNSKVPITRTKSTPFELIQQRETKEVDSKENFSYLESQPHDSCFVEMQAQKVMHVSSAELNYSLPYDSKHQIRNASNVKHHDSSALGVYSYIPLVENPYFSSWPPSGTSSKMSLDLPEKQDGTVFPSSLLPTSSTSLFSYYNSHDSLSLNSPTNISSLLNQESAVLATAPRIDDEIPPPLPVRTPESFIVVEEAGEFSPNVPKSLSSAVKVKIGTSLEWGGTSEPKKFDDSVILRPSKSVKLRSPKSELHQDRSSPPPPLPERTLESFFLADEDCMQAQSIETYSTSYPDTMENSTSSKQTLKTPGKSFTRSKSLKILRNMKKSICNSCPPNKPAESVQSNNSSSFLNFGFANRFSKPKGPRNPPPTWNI
Sequence of Dual specificity protein phosphatase 6 (Q64346 whole entry): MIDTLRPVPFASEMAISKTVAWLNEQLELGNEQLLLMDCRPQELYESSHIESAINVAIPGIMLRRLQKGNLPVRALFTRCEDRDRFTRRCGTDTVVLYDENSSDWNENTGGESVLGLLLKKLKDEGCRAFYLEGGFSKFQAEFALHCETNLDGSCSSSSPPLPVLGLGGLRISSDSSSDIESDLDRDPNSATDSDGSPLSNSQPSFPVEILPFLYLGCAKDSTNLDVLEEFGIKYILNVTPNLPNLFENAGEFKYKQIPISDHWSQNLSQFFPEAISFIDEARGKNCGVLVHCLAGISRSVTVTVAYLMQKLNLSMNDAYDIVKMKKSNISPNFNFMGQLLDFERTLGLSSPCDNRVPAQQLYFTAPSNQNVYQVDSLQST
Sequence of DNA damage-inducible transcript 3 protein (P35639 whole entry): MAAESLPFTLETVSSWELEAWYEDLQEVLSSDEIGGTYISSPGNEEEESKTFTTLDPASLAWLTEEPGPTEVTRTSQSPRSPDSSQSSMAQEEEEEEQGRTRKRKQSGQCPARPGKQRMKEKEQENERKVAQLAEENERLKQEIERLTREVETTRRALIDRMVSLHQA
Sequence of Tyrosine-protein phosphatase non-receptor type 12 (Q05209 whole entry): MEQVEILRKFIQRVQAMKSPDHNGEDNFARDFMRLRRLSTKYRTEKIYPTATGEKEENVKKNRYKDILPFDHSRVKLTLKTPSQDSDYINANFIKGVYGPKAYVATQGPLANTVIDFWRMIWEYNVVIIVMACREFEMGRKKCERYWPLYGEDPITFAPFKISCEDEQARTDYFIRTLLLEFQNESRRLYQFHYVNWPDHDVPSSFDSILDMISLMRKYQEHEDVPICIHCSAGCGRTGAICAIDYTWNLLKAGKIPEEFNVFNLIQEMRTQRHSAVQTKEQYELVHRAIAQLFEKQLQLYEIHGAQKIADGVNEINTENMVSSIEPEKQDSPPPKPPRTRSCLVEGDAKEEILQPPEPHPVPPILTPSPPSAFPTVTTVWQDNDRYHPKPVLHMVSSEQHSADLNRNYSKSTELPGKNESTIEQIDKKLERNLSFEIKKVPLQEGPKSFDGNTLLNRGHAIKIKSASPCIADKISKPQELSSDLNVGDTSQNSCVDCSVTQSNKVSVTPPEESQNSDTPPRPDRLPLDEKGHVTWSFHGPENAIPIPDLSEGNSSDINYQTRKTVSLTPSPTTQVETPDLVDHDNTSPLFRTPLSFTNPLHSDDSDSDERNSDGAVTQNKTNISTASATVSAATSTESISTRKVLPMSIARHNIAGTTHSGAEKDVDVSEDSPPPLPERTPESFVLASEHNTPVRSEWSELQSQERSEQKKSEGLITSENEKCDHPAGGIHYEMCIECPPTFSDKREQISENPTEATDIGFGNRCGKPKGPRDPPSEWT

With `Cc1ccc(C(=O)Cn2cc(-c3ccc(C)cc3)[n+]3c2CCCCC3)cc1` the EC50 [1] was > 150 µM (inactive), the EC50 [2] was 85.7 µM (active) and the EC50 [3] was 1.32 µM (active). The AC50 [4] was 40.5 µM (active), the EC50 [5] was 17.3 µM (active) and the EC50 [6] was > 150 µM (not active). For the same compound, the AC50 [7] was 1.3 µM (active), the IC50 [8] was > 80 µM (inactive) and the EC50 [9] was > 150 µM (not active). The AC50 [10] was 3.63 µM (active).
For `Cc1cc(N2CCOc3ccccc32)nc2ccccc12`, the IC50 [11] was 24.5 µM (active) and the IC50 [12] was 12 µM (active).
For `O=C(N/N=C/c1ccccc1Cl)c1[nH]nc2c1CCCC2`, the AC50 [13] was 48.5 µM (active), the “Absolute IC50 (CHOP)” value [14] was 10 µM and the EC50 [2] was 15.8 µM (active). The EC50 [5] was 16.4 µM (active), the EC50 [6] was > 150 µM (inconclusive) and the “Absolute IC50 (XBP1)” value [15] was 10 µM. The EC50 [9] was 18.2 µM (active), the AC50 [10] was 7.97 µM (active) and the EC50 [16] was 16 µM (active).
With `CC(C)(Oc1ccc2sc3ccccc3c2c1)C(=O)O` the IC50 [17] was > 99 µM (inactive), the IC50 [18] was 9.45 µM (active) and the IC50 [19] was 30.2 µM (active). For the same compound, the IC50 [20] was 83.8 µM (active), the IC50 [21] was 77.5 µM (active) and the IC50 [22] was 0.45 µM (active).
